From US11806342B2, “Diiodohydroxyquinoline for the treatment of clostridium difficile infection” (Purdue Research Foundation, priority 2019, dated 2023)
In brackets after ≈: the same amount, converted by molar mass. Read-outs that look alike come from different tables or passages of the source.

How the values were obtained:
[1] = system: Bifidobacterium breve HM-1120; assay: MIC against normal gut microflora, broth microdilution; type: cell-based; details: HM1120; Bifidobacterium breve HM-1120; read-out: MIC
Protocol: (§1) In vitro antimicrobial evaluation of diiodohydroxyquinoline against normal microflora. The broth microdilution assay was utilized to determine the MICs of DIHQ and control antibiotics against commensal organisms that compose he human gut microflora, as described elsewhere. A bacterial solution equivalent to 0.5 McFarland standard was prepared and diluted in BHIS broth (for Bifidobacterium and Bacteroides) or in MRS broth (for Lactobacillus) to achieve a bacterial concentration of about 5×10^5 CFU/mL. Then, drugs were added and serially diluted along the plates.

Bacteroides dorei HM-29 = assay: as above; type: cell-based; details: Phocaeicola dorei, HM29; Bacteroides dorei HM-29; read-out: MIC
Protocol: as §1

[2] = system: Bifidobacterium angulatum HM-1189; assay: as above; type: cell-based; details: HM1189; Bifidobacterium angulatum HM-1189; read-out: MIC
Protocol: as §1

Bacteroides dorei HM-718 = assay: as above; type: cell-based; details: Phocaeicola dorei, HM718; Bacteroides dorei HM-718; read-out: MIC
Protocol: as §1

[3] = system: Bifidobacterium adolescentis HM-633; assay: as above; type: cell-based; details: HM633; Bifidobacterium adolescentis HM-633; read-out: MIC
Protocol: as §1

[4] = system: Bacteroides fragilis HM-711; assay: as above; type: cell-based; details: HM711; Bacteroides fragilis HM-711; read-out: MIC
Protocol: as §1

[5] = system: Bacteroides fragilis HM-710; assay: as above; type: cell-based; details: HM710; Bacteroides fragilis HM-710; read-out: MIC
Protocol: as §1

[6] = system: Lactobacillus crispatus HM-371; assay: as above; type: cell-based; details: HM371; Lactobacillus crispatus HM-371; read-out: MIC
Protocol: as §1

[7] = system: Bacteroides fragilis HM-714; assay: as above; type: cell-based; details: HM714; Bacteroides fragilis HM-714; read-out: MIC
Protocol: as §1

Bacteroides dorei HM-719 = assay: as above; type: cell-based; details: Phocaeicola dorei, HM719; Bacteroides dorei HM-719; read-out: MIC
Protocol: as §1

[8] = system: Bifidobacterium breve HM-411; assay: as above; type: cell-based; details: HM411; Bifidobacterium breve HM-411; read-out: MIC
Protocol: as §1

Bacteroides dorei HM-717 = assay: as above; type: cell-based; details: Phocaeicola dorei, HM717; Bacteroides dorei HM-717; read-out: MIC
Protocol: as §1

[9] = system: Lactobacillus casei ATCC 334; assay: as above; type: cell-based; details: Lacticaseibacillus casei, ATCC334; Lactobacillus casei ATCC 334; read-out: MIC
Protocol: as §1

[10] = system: Bifidobacterium longum HM-847; assay: as above; type: cell-based; details: HM847; Bifidobacterium longum HM-847; read-out: MIC
Protocol: as §1

[11] = system: Bacteroides fragilis HM-709; assay: as above; type: cell-based; details: HM709; Bacteroides fragilis HM-709; read-out: MIC
Protocol: as §1

[12] = system: Bifidobacterium longum HM-845; assay: as above; type: cell-based; details: HM845; Bifidobacterium longum HM-845; read-out: MIC
Protocol: as §1

[13] = system: Lactobacillus reuteri HM-102; assay: as above; type: cell-based; details: Lactobacillus reuteri HM-102
Protocol: as §1

C. difficile P11 [14] = assay: Checkerboard assay, DIHQ with metronidazole or vancomycin; type: cell-based, Clostridium difficile
Protocol: (§2) Interactions between diiodohydroxyquinoline and the anticlostridial drugs (metronidazole and vancomycin) against Clostridium difficile clinical isolates. […] The fractional inhibitory concentration index (ΣFIC) was calculated for each interaction. Interactions where the ΣFIC index was ≤0.5 were categorized as synergistic (SYN).

C. difficile ATCC 1801 = assay: as above; type: cell-based, Clostridium difficile
Protocol: as §2

C. difficile P19 = assay: as above; type: cell-based, Clostridium difficile
Protocol: as §2

C. difficile P30 = assay: as above; type: cell-based, Clostridium difficile
Protocol: as §2

C. difficile P11 [15] = assay: MIC and MBC, broth microdilution; type: cell-based, Clostridium difficile; details: Clostridioides difficile, C. difficile P11
Protocol: (§3) MIC50 and MIC90 are the minimum concentration of each agent that inhibited growth of 50% and 90% of the tested isolates, respectively. The minimum bactericidal concentration (MBC) of these drugs was tested by plating 5 μL from wells with no growth onto BHIS agar plates. The MBC was categorized as the lowest concentration that reduced bacterial growth by 99.9% MIC50 and MIC90 are the minimum concentration of each agent that inhibited the growth of 50% and 90% of the tested isolates, respectively. The minimum bactericidal concentration (MBC) of these drugs was tested by plating 5 μL from wells with no growth onto BHIS agar plates. The MBC was categorized as the lowest concentration that reduced bacterial growth by 99.9% [29-31].

C. difficile ATCC 43598 = assay: MIC and MBC, broth microdilution; type: cell-based, Clostridium difficile; details: Clostridioides difficile, ATCC43598, C. difficile ATCC 43598
Protocol: as §3

C. difficile NR-49290 = assay: MIC and MBC, broth microdilution; type: cell-based, Clostridium difficile; details: Clostridioides difficile, NR49290, C. difficile NR-49290
Protocol: as §3

C. difficile P2 = assay: MIC and MBC, broth microdilution; type: cell-based, Clostridium difficile; details: Clostridioides difficile, C. difficile P2
Protocol: as §3

[16] = system: C. difficile ATCC BAA-1870; assay: MIC and MBC, broth microdilution; type: cell-based, Clostridium difficile; details: Clostridioides difficile, ATCCBAA1870, C. difficile ATCC BAA-1870
Protocol: as §3

C. difficile I1 = assay: MIC and MBC, broth microdilution; type: cell-based, Clostridium difficile; details: Clostridioides difficile, C. difficile I1
Protocol: as §3

C. difficile NR-49277 = assay: MIC and MBC, broth microdilution; type: cell-based, Clostridium difficile; details: Clostridioides difficile, NR49277, C. difficile NR-49277
Protocol: as §3

C. difficile P8 = assay: MIC and MBC, broth microdilution; type: cell-based, Clostridium difficile; details: Clostridioides difficile, C. difficile P8
Protocol: as §3

[17] = DIHQ with metronidazole, C. difficile P11
[18] = DIHQ with vancomycin, C. difficile P11
[19] = DIHQ with metronidazole, C. difficile ATCC 1801
[20] = DIHQ with vancomycin, C. difficile ATCC 1801
[21] = DIHQ with metronidazole, C. difficile P19
[22] = DIHQ with vancomycin, C. difficile P19
[23] = DIHQ with metronidazole, C. difficile P30
[24] = DIHQ with vancomycin, C. difficile P30

Oc1c(I)cc(I)c2cccnc12 [DIHQ, 5,7-diiodoquinolin-8-ol]
MIC [1]: > 128 µg/mL
MIC (Bacteroides dorei HM-29): > 128 µg/mL
MIC [2]: 128 µg/mL (≈ 322 µM)
MIC (Bacteroides dorei HM-718): > 128 µg/mL
MIC [3]: 128 µg/mL (≈ 322 µM)
MIC [4]: > 128 µg/mL
MIC [5]: > 128 µg/mL
MIC [6]: 64 µg/mL (≈ 161 µM)
MIC [7]: > 128 µg/mL
MIC (Bacteroides dorei HM-719): > 128 µg/mL
MIC [8]: > 128 µg/mL
MIC (Bacteroides dorei HM-717): > 128 µg/mL
MIC [9]: 16 µg/mL (≈ 40.3 µM)
MIC [10]: 128 µg/mL (≈ 322 µM)
MIC [11]: > 128 µg/mL
MIC [12]: 64 µg/mL (≈ 161 µM)
MIC [13]: >128 µg/mL
MIC ([13]; Limosilactobacillus reuteri, HM102, read-out: MIC): > 128 µg/mL
MIC of DIHQ combined with metronidazole (C. difficile P11 [14]; C. difficile P11): 0.125 µg/mL
MIC of DIHQ combined with vancomycin (C. difficile P11 [14]; C. difficile P11): 0.5 µg/mL
MIC alone (C. difficile P11 [14]; C. difficile P11, Table 4): 0.5 µg/mL
MIC (C. difficile P11 [14]; Clostridioides difficile, C. difficile P11, Table 3, read-out: MIC alone): 0.5 µg/mL
Interpretation (C. difficile P11 [14]; [17]): SYN (ΣFIC index ≤0.5 is considered synergistic (SYN))
ΣFIC Index (C. difficile P11 [14]; [17]): 0.37
Interpretation (C. difficile P11 [14]; [18]): ADD (ΣFIC index >0.5 − 1.25 is considered additive (ADD))
ΣFIC Index (C. difficile P11 [14]; [18]): 1.125
MIC of DIHQ combined with metronidazole (C. difficile ATCC 1801; C. difficile ATCC 1801): 1 µg/mL
MIC of DIHQ combined with vancomycin (C. difficile ATCC 1801; C. difficile ATCC 1801): 2 µg/mL
MIC alone (C. difficile ATCC 1801; C. difficile ATCC 1801, Table 4): 4 µg/mL
MIC (C. difficile ATCC 1801; Clostridioides difficile, ATCC1801, C. difficile ATCC 1801, Table 3, read-out: MIC alone): 4 µg/mL
Interpretation (C. difficile ATCC 1801; [19]): SYN (ΣFIC index ≤0.5 is considered synergistic (SYN))
ΣFIC Index (C. difficile ATCC 1801; [19]): 0.37
Interpretation (C. difficile ATCC 1801; [20]): ADD (ΣFIC index >0.5 − 1.25 is considered additive (ADD))
ΣFIC Index (C. difficile ATCC 1801; [20]): 0.625
MIC of DIHQ combined with metronidazole (C. difficile P19; C. difficile P19): 0.06 µg/mL
MIC of DIHQ combined with vancomycin (C. difficile P19; C. difficile P19): 0.125 µg/mL
MIC alone (C. difficile P19; C. difficile P19, Table 4): 0.5 µg/mL
MIC (C. difficile P19; Clostridioides difficile, C. difficile P19, Table 3, read-out: MIC alone): 0.5 µg/mL
Interpretation (C. difficile P19; [21]): SYN (ΣFIC index ≤0.5 is considered synergistic (SYN))
ΣFIC Index (C. difficile P19; [21]): 0.24
Interpretation (C. difficile P19; [22]): SYN (ΣFIC index ≤0.5 is considered synergistic (SYN))
ΣFIC Index (C. difficile P19; [22]): 0.375
MIC of DIHQ combined with metronidazole (C. difficile P30; C. difficile P30): 0.06 µg/mL
MIC of DIHQ combined with vancomycin (C. difficile P30; C. difficile P30): 0.125 µg/mL
MIC alone (C. difficile P30; C. difficile P30, Table 4): 1 µg/mL
MIC (C. difficile P30; Clostridioides difficile, C. difficile P30, Table 3, read-out: MIC alone): 1 µg/mL
Interpretation (C. difficile P30; [23]): SYN (ΣFIC index ≤0.5 is considered synergistic (SYN))
ΣFIC Index (C. difficile P30; [23]): 0.185
Interpretation (C. difficile P30; [24]): SYN (ΣFIC index ≤0.5 is considered synergistic (SYN))
ΣFIC Index (C. difficile P30; [24]): 0.25
MBC (C. difficile P11 [15]; read-out: MBC): 0.25 µg/mL (≈ 0.63 µM)
MIC (C. difficile P11 [15]; read-out: MIC): 0.25 µg/mL (≈ 0.63 µM)
MBC (C. difficile ATCC 43598; read-out: MBC): 1 µg/mL (≈ 2.52 µM)
MIC (C. difficile ATCC 43598; read-out: MIC): 1 µg/mL (≈ 2.52 µM)
MBC (C. difficile NR-49290; read-out: MBC): 0.5 µg/mL (≈ 1.26 µM)
MIC (C. difficile NR-49290; read-out: MIC): 0.25 µg/mL (≈ 0.63 µM)
MBC (C. difficile P2; read-out: MBC): 0.25 µg/mL (≈ 0.63 µM)
MIC (C. difficile P2; read-out: MIC): 0.25 µg/mL (≈ 0.63 µM)
MBC ([16]; read-out: MBC): 1 µg/mL (≈ 2.52 µM)
MIC ([16]; read-out: MIC): 1 µg/mL (≈ 2.52 µM)
MBC (C. difficile I1; read-out: MBC): 1 µg/mL (≈ 2.52 µM)
MIC (C. difficile I1; read-out: MIC): 1 µg/mL (≈ 2.52 µM)
MBC (C. difficile NR-49277; read-out: MBC): 0.5 µg/mL (≈ 1.26 µM)
MIC (C. difficile NR-49277; read-out: MIC): 0.5 µg/mL (≈ 1.26 µM)
MBC (C. difficile P8; read-out: MBC): 0.125 µg/mL (≈ 0.315 µM)
MIC (C. difficile P8; read-out: MIC): 0.125 µg/mL (≈ 0.315 µM)
